From publication PMC10783114, “Establishment of a screening platform based on human coronavirus OC43 for the identification of microbial natural products with antiviral activity” (Microbiology Spectrum, 2023)
Where two headings read alike, the source gives them in different places. Non-standard residues stand in square brackets, D forms with d. Residues, ends and D or L forms follow the SMILES beside them. dLac(3-vinyl) = C=CC[C@@H](O)C(=O)O; dHica = CC(C)C[C@@H](O)C(=O)O; NMeV = CN[C@H](C(=O)O)C(C)C; NMeA = CN[C@@H](C)C(=O)O; βAla = NCCC(=O)O

Key:
[1] = system: HCoV-OC43; experiment: Resazurin-based CPE inhibition assay in HCoV-OC43-infected MRC-5 cells; assay type: cell-based, Human betacoronavirus OC43; conditions: for antiviral activity against HCoV-OC43 infection in MRC-5 cells (in words): tested in both assays (CPE inhibition and HCS)
[2] = system: HCoV-OC43; experiment: High-content screening assay, anti-OC43 immunostaining of infected MRC-5 cells; assay type: cell-based, Human betacoronavirus OC43
[3] = system: HCoV-OC43; experiment: RT-qPCR of extracellular HCoV-OC43 RNA in culture supernatants; assay type: cell-based, Human betacoronavirus OC43; conditions: 72 h incubation
Protocol: Viral RNA from supernatants was purified using the Macherey-Nagel Nucleospin RNA Kit. RT-qPCR was performed in a single step using the One-Step TB Green PrimeScript RT-PCR Kit II (Takara Bio). The HCoV-OC43 nucleocapsid gene was amplified with the following primers: the forward primer 5′ […]-3′ and the reverse primer 5′ […]-3′ ([27]). A standard curve was generated with purified HCoV-RNA (Vircell).

[4] = system: MRC-5 cells
[5] = in vitro; conditions: human
[6] = system: HCoV-OC43; design: method as in PMID 30918074; conditions: mouse model ref 29; cited from earlier work
[7] = system: MERS; conditions: marmosets infected with MERS ref 35; cited from earlier work
[8] = system: MRC-5 cells; experiment: Resazurin cytotoxicity assay in non-infected MRC-5 cells; conditions: MRC-5 cells
[9] = as above; conditions: human
[10] = Betacoronavirus 1, OC43, MRC5, read-out: EC50 (HCS assay)
[11] = Betacoronavirus 1, MRC5, MRC-5 infected with HCoV-OC43 at 0.1 MOI, 96 h with drug, 5 days post-infection, resazurin readout, read-out: EC50 (CPE inhibition assay)
[12] = Betacoronavirus 1, OC43, MRC5, infected MRC-5, 72 h incubation with drug, 4 days post-infection, read-out: EC50 (HCS assay)
[13] = CC50, non-infected MRC-5 cells, 96 h incubation, resazurin

Work on `CCN(CC)CCCC(C)Nc1ccnc2cc(Cl)ccc12` (stereo not drawn) [Chloroquine, chloroquine] yielded an EC50 ([1]; Betacoronavirus 1, OC43, MRC5, read-out: EC50 (CPE inhibition assay)) of 6.22 µM and an EC50 [2, 10] of 1.23 µM.

In the case of `CCCCC/C=C\C/C=C\CCCCCCCC(=O)O` [Linoleic acid, linoleic acid], the EC50 [1, 11] is reported as 25.6 µM, the “antiviral activity against HCoV-OC43 infection in MRC-5 cells (in words)” value (shortened to “antiviral activity … (in words)”) [1] is reported as “showed activity” and the EC50 [2, 12] is reported as 18.3 µM. The “HCoV-OC43 RNA load in supernatant” value ([3]; 15 µM) was “below 50%”, the “toxicity against MRC-5 host cells (in words)” value [4] was “no evident toxicity” and the CC50 at 96 h [5] was over 40 µM.

With `COc1c(C)c2c(c(O)c1C/C=C(\C)CCC(=O)OCCN1CCOCC1)C(=O)OC2` [Mycophenolate mofetil, mycophenolate mofetil] the EC50 [1, 11] was 20.7 µM, the “antiviral activity … (in words)” value [1] was “showed activity” and the EC50 [2, 12] was 1.91 µM. The “antiviral activity against HCoV-OC43 in a mouse model” value [6] was “no antiviral activity”, the CC50 [5] was over 200 µM and the “side effects in vivo” value [7] was “severe side effects”.

For `O=C1OCC(Cc2ccccc2)=C1c1ccccc1` [Gymnoascolide A, gymnoascolide A], the “antiviral activity … (in words)” value [1] was “showed activity”, the EC50 ([2]; infected MRC-5, 72 h incubation with drug, 4 days post-infection, read-out: EC50 (HCS assay)) was 20.6 µM and the “HCoV-OC43 RNA level in supernatant” value ([3]; 40 µM) was “under 20%”. The “HCoV-OC43 RNA level (viral load) in supernatant” value ([3]; 80 µM) was “below 5%” and the “toxicity against MRC-5 host cells (in words)” value [8] was “no evident toxicity”.

In the case of `NC(=O)c1ncn([C@@H]2O[C@H](CO)[C@@H](O)[C@H]2O)n1` [Ribavirin, ribavirin], the selectivity index [1] is reported as about 8, the EC50 [1, 11] is reported as 118 µM and the “antiviral activity … (in words)” value [1] is reported as “showed activity”. The EC50 [2, 10] was 92.1 µM and the CC50 at 96 h ([9]; non-infected MRC-5 cells) was over 800 µM.

With `CC[C@H](C)[C@@H]1NC(=O)[C@@H]2CCCN2C(=O)[C@@H](CC(C)C)OC(=O)CCNC(=O)[C@H](C)N(C)C(=O)[C@H](C(C)C)N(C)C1=O` [Destruxin B, destruxin B] (cyclo([dHica]PI[NMeV][NMeA][βAla])) the “antiviral activity … (in words)” value [1] was “did not have an effect”, the “antiviral activity … (in words)” value ([1]; listed as destruxin B) was “non-active” and the CC50 at 96 h [9, 13] was about 10 µM.

For `C=CC[C@H]1OC(=O)CCNC(=O)[C@H](C)N(C)C(=O)[C@H](C(C)C)N(C)C(=O)[C@H]([C@@H](C)CC)NC(=O)[C@@H]2CCCN2C1=O` [Destruxin A, destruxin A] (cyclo([dLac(3-vinyl)]PI[NMeV][NMeA][βAla])), the “antiviral activity … (in words)” value [1] was “did not have an effect”, the “antiviral activity … (in words)” value ([1]; listed as destruxin A) was “non-active” and the CC50 at 96 h [9, 13] was about 10 µM.
